Laboratory results: paper PMC5218480 (PLoS ONE, 2017)

System: MV-4-11 cells
Assay: Gene expression microarray analysis (Affymetrix PrimeView) and GSEA
Type: cell-based, human
Parameters: RFU PODN (11730768_x_at) / Fold change /veh PODN (11730768_x_at) / RFU LINC00158 (11744669_a_at) / Fold change /veh LINC00158 (11744669_a_at) / RFU DUSP10 (11751237_a_at) / Fold change /veh DUSP10 (11751237_a_at) / RFU ID3 (11757404_x_at) / Fold change /veh ID3 (11757404_x_at) / RFU PLEKHG5 (11737974_s_at) / Fold change /veh PLEKHG5 (11737974_s_at) / RFU LRRC4B (11730491_at) / Fold change /veh LRRC4B (11730491_at) / RFU GIMAP4 (11747438_a_at) / Fold change /veh GIMAP4 (11747438_a_at) / RFU KRT8 (11758183_x_at) / Fold change /veh KRT8 (11758183_x_at) / RFU CNN1 (11734310_a_at) / Fold change /veh CNN1 (11734310_a_at) / RFU VPS37D (11726825_at) / Fold change /veh VPS37D (11726825_at) / RFU C10orf10 (11716522_x_at) / Fold change /veh C10orf10 (11716522_x_at) / RFU KIR2DL2 /// KIR2DL4 /// KIR2DL5A /// KIR2DL5B /// KIR2DS1 /// KIR2DS2 /// KIR2DS3 /// KIR2DS4 /// KIR3DL3 /// KIR3DL3 /// KIR3DS1 (11738374_at) / Fold change /veh KIR2DL2 /// KIR2DL4 /// KIR2DL5A /// KIR2DL5B /// KIR2DS1 /// KIR2DS2 /// KIR2DS3 /// KIR2DS4 /// KIR3DL3 /// KIR3DL3 /// KIR3DS1 (11738374_at) / RFU C1QL1 (11718748_at) / Fold change /veh C1QL1 (11718748_at) / RFU TMPRSS4 (11747572_a_at) / Fold change /veh TMPRSS4 (11747572_a_at) / RFU HAMP (11756126_x_at) / Fold change /veh HAMP (11756126_x_at) / RFU RNFT2 (11725882_a_at) / Fold change /veh RNFT2 (11725882_a_at) / RFU NR4A2 (11747474_a_at) / Fold change /veh NR4A2 (11747474_a_at) / RFU ABCC12 (11746883_a_at) / Fold change /veh ABCC12 (11746883_a_at) / RFU TMEM136 (11760407_x_at) / Fold change /veh TMEM136 (11760407_x_at) / RFU CLDN22 /// WWC2 (11732394_at) / Fold change /veh CLDN22 /// WWC2 (11732394_at) / RFU HLA-DPB1 (11760878_x_at) / Fold change /veh HLA-DPB1 (11760878_x_at) / RFU SPINT1 (11716480_a_at) / Fold change /veh SPINT1 (11716480_a_at) / RFU GAP43 (11754022_s_at) / Fold change /veh GAP43 (11754022_s_at) / RFU A4GNT (11735810_at) / Fold change /veh A4GNT (11735810_at) / RFU PRB3 (11715151_x_at) / Fold change /veh PRB3 (11715151_x_at) / RFU TUBB4B (11761932_at) / Fold change /veh TUBB4B (11761932_at) / RFU CAPN14 (11732068_a_at) / Fold change /veh CAPN14 (11732068_a_at) / RFU TMCC2 (11721928_a_at) / Fold change /veh TMCC2 (11721928_a_at) / RFU IRGQ (11745062_a_at) / Fold change /veh IRGQ (11745062_a_at) / RFU FAM174B (11720279_a_at) / Fold change /veh FAM174B (11720279_a_at) / RFU TMPRSS4 (11748680_a_at) / Fold change /veh TMPRSS4 (11748680_a_at) / RFU FAM212B (11763350_a_at) / Fold change /veh FAM212B (11763350_a_at) / RFU PLEKHG5 (11743358_a_at) / Fold change /veh PLEKHG5 (11743358_a_at) / RFU ZSCAN30 (11745921_a_at) / Fold change /veh ZSCAN30 (11745921_a_at) / RFU CMKLR1 (11741424_a_at) / Fold change /veh CMKLR1 (11741424_a_at) / RFU LOC101060620 /// MAPK8IP1 (11723275_at) / Fold change /veh LOC101060620 /// MAPK8IP1 (11723275_at) / RFU SPTSSB (11747773_x_at) / Fold change /veh SPTSSB (11747773_x_at) / RFU PRSS12 (11739890_at) / Fold change /veh PRSS12 (11739890_at) / RFU BIN1 (11741810_x_at) / Fold change /veh BIN1 (11741810_x_at) / RFU WNT11 (11732464_a_at) / Fold change /veh WNT11 (11732464_a_at) / RFU C10orf10 (11716521_a_at) / Fold change /veh C10orf10 (11716521_a_at) / RFU C5orf56 (11738089_at) / Fold change /veh C5orf56 (11738089_at) / RFU CYB561 (11721691_x_at) / Fold change /veh CYB561 (11721691_x_at) / RFU ANKRD19P (11752326_a_at) / Fold change /veh ANKRD19P (11752326_a_at) / RFU OR2T12 /// OR2T33 /// OR2T8 (11738714_s_at) / Fold change /veh OR2T12 /// OR2T33 /// OR2T8 (11738714_s_at) / RFU VCAN (11748164_a_at) / Fold change /veh VCAN (11748164_a_at) / RFU JSRP1 (11732532_at) / Fold change /veh JSRP1 (11732532_at) / RFU KRTAP10-11 (11738290_x_at) / Fold change /veh KRTAP10-11 (11738290_x_at) / RFU MYO3A (11730013_a_at) / Fold change /veh MYO3A (11730013_a_at) / RFU EBF3 (11725865_a_at) / Fold change /veh EBF3 (11725865_a_at) / RFU CAMK2N1 (11719241_x_at) / Fold change /veh CAMK2N1 (11719241_x_at) / RFU C5orf56 (11738088_a_at) / Fold change /veh C5orf56 (11738088_a_at) / RFU OLFML3 (11715873_a_at) / Fold change /veh OLFML3 (11715873_a_at) / RFU LOC100653217 /// NTM (11731650_a_at) / Fold change /veh LOC100653217 /// NTM (11731650_a_at) / RFU MAPK11 (11762145_a_at) / Fold change /veh MAPK11 (11762145_a_at) / RFU FIZ1 (11724087_x_at) / Fold change /veh FIZ1 (11724087_x_at) / RFU OASL (11726364_x_at) / Fold change /veh OASL (11726364_x_at) / RFU SOX15 (11748057_x_at) / Fold change /veh SOX15 (11748057_x_at) / RFU CD79A (11719716_a_at) / Fold change /veh CD79A (11719716_a_at) / RFU HIST1H1D (11736915_at) / Fold change /veh HIST1H1D (11736915_at) / RFU CASKIN2 (11723855_a_at) / Fold change /veh CASKIN2 (11723855_a_at) / RFU LOC730098 (11760151_x_at) / Fold change /veh LOC730098 (11760151_x_at) / RFU OR4N2 (11742367_at) / Fold change /veh OR4N2 (11742367_at) / RFU PRRT2 (11749266_a_at) / Fold change /veh PRRT2 (11749266_a_at) / RFU SNX32 (11753110_a_at) / Fold change /veh SNX32 (11753110_a_at) / RFU CDHR5 (11726645_a_at) / Fold change /veh CDHR5 (11726645_a_at) / RFU RCAN1 (11760418_a_at) / Fold change /veh RCAN1 (11760418_a_at) / RFU FAM167A (11723789_a_at) / Fold change /veh FAM167A (11723789_a_at) / RFU FAM26E (11764081_at) / Fold change /veh FAM26E (11764081_at) / RFU ISYNA1 (11749810_s_at) / Fold change /veh ISYNA1 (11749810_s_at) / RFU ACY1 (11761880_at) / Fold change /veh ACY1 (11761880_at) / RFU 11764098_at / Fold change /veh 11764098_at / RFU SAMD14 (11745864_x_at) / Fold change /veh SAMD14 (11745864_x_at) / RFU NPB (11741838_a_at) / Fold change /veh NPB (11741838_a_at) / RFU TMPRSS6 (11731388_a_at) / Fold change /veh TMPRSS6 (11731388_a_at) / RFU KRTAP10-2 (11738614_at) / Fold change /veh KRTAP10-2 (11738614_at) / RFU ARHGAP8 /// PRR5-ARHGAP8 (11727945_x_at) / Fold change /veh ARHGAP8 /// PRR5-ARHGAP8 (11727945_x_at) / RFU KRTAP5-7 /// NADSYN1 (11734609_at) / Fold change /veh KRTAP5-7 /// NADSYN1 (11734609_at) / RFU RASL12 (11751679_a_at) / Fold change /veh RASL12 (11751679_a_at) / RFU CDKN2B (11736163_a_at) / Fold change /veh CDKN2B (11736163_a_at) / RFU PRF1 (11729649_at) / Fold change /veh PRF1 (11729649_at) / RFU, ZNF638 /// ZNF638-IT1 / Fold change vs veh, ZNF638 /// ZNF638-IT1 / RFU, PANK3 / Fold change vs veh, PANK3 / RFU, SH3YL1 / Fold change vs veh, SH3YL1 / RFU, ZEB2 / Fold change vs veh, ZEB2 / RFU, NRIP1 / Fold change vs veh, NRIP1 / RFU, PTTG1IP / Fold change vs veh, PTTG1IP / RFU, CAPN2 / Fold change vs veh, CAPN2 / RFU, MED14 / Fold change vs veh, MED14 / RFU, SNORA58 / Fold change vs veh, SNORA58 / RFU, C1orf63 / Fold change vs veh, C1orf63 / RFU, LRRFIP1 / Fold change vs veh, LRRFIP1 / RFU, NDUFAF7 / Fold change vs veh, NDUFAF7 / RFU, SLC12A2 / Fold change vs veh, SLC12A2 / RFU, IBTK / Fold change vs veh, IBTK / RFU, ESF1 / Fold change vs veh, ESF1 / Fold change vs veh, TMEM50B / RFU, TAOK1 / Fold change vs veh, TAOK1 / RFU, ACBD3 / Fold change vs veh, ACBD3 / RFU, TMA16 / Fold change vs veh, TMA16 / RFU, RWDD3 / Fold change vs veh, RWDD3 / RFU, BCAT1 / Fold change vs veh, BCAT1 / RFU, EDEM3 / Fold change vs veh, EDEM3 / RFU, TMEM33 / Fold change vs veh, TMEM33 / RFU, WDR75 / Fold change vs veh, WDR75 / RFU, AHCTF1 / Fold change vs veh, AHCTF1 / RFU, TFRC / Fold change vs veh, TFRC / RFU, ZDHHC17 / Fold change vs veh, ZDHHC17 / RFU, NOM1 / Fold change vs veh, NOM1 / RFU, ARL8B / Fold change vs veh, ARL8B / RFU, ZBTB11 / Fold change vs veh, ZBTB11 / RFU, TAMM41 / Fold change vs veh, TAMM41 / RFU, KIAA1704 /// LOC100996395 / Fold change vs veh, KIAA1704 /// LOC100996395 / RFU, ING1 / Fold change vs veh, ING1 / RFU, TRMT61B / Fold change vs veh, TRMT61B / RFU, FUBP3 / Fold change vs veh, FUBP3 / RFU, TP53 / Fold change vs veh, TP53 / RFU, TNKS2 / Fold change vs veh, TNKS2 / RFU, ZFP14 / Fold change vs veh, ZFP14 / RFU, ACTR2 / Fold change vs veh, ACTR2 / RFU, PPP3R1 / Fold change vs veh, PPP3R1 / RFU, PIK3R1 / Fold change vs veh, PIK3R1 / RFU, HNRNPA1 / Fold change vs veh, HNRNPA1 / RFU, RNF170 / Fold change vs veh, RNF170 / RFU, ZNF28 / Fold change vs veh, ZNF28 / RFU, RNGTT / Fold change vs veh, RNGTT / RFU, OGT / Fold change vs veh, OGT / RFU, BRD1 / Fold change vs veh, BRD1 / RFU, MARS / Fold change vs veh, MARS / RFU, ZNF655 / Fold change vs veh, ZNF655 / RFU, FAHD1 / Fold change vs veh, FAHD1 / RFU, BDP1 / Fold change vs veh, BDP1 / RFU, LRRCC1 / Fold change vs veh, LRRCC1 / RFU, ARID1A / Fold change vs veh, ARID1A / RFU, ZNF146 / Fold change vs veh, ZNF146 / RFU, ZNF330 / Fold change vs veh, ZNF330 / RFU, GPN3 / Fold change vs veh, GPN3 / RFU, C9orf123 / Fold change vs veh, C9orf123 / RFU, N4BP2L2 / Fold change vs veh, N4BP2L2 / RFU, ARFIP1 / Fold change vs veh, ARFIP1 / RFU, FAM179B / Fold change vs veh, FAM179B / RFU, BCL10 / Fold change vs veh, BCL10 / RFU, UHRF1BP1L / Fold change vs veh, UHRF1BP1L / RFU, BET1 / Fold change vs veh, BET1 / RFU, CNOT2 / Fold change vs veh, CNOT2 / RFU, ZNF268 / Fold change vs veh, ZNF268 / Fold change vs veh, ZNF507 / RFU, DGCR2 / Fold change vs veh, DGCR2 / RFU, WDSUB1 / Fold change vs veh, WDSUB1 / Fold change vs veh, HSP90B1 /// MIR3652 / RFU, ADSS / Fold change vs veh, ADSS / RFU, GK / Fold change vs veh, GK / RFU, ZNF148 / Fold change vs veh, ZNF148 / RFU, TAF9 / Fold change vs veh, TAF9 / RFU, SLC1A5 / Fold change vs veh, SLC1A5 / RFU, SLMO2 / Fold change vs veh, SLMO2 / RFU, ABCC4 / Fold change vs veh, ABCC4 / RFU, LOC101060439 /// RAP1B / Fold change vs veh, LOC101060439 /// RAP1B / RFU, RFX7 / Fold change vs veh, RFX7 / RFU, GTPBP10 / Fold change vs veh, GTPBP10 / RFU, CNEP1R1 / Fold change vs veh, CNEP1R1 / RFU, BIVM-ERCC5 /// ERCC5 / Fold change vs veh, BIVM-ERCC5 /// ERCC5 / RFU, ILF3 / Fold change vs veh, ILF3 / RFU 11762660_at / Fold change /veh 11762660_at / RFU VCAN (11757783_s_at) / Fold change /veh VCAN (11757783_s_at) / RFU DDX43 (11728927_at) / Fold change /veh DDX43 (11728927_at) / RFU KRT8 (11758188_x_at) / Fold change /veh KRT8 (11758188_x_at) / RFU NKD1 (11759106_at) / Fold change /veh NKD1 (11759106_at) / RFU SRD5A1 (11742802_a_at) / Fold change /veh SRD5A1 (11742802_a_at) / RFU TPSAB1 /// TPSB2 (11721975_s_at) / Fold change /veh TPSAB1 /// TPSB2 (11721975_s_at) / RFU GSTM3 (11746129_a_at) / Fold change /veh GSTM3 (11746129_a_at) / RFU IL23R (11737362_x_at) / Fold change /veh IL23R (11737362_x_at) / RFU TMEM51 (11727254_a_at) / Fold change /veh TMEM51 (11727254_a_at) / RFU PIWIL2 (11732686_x_at) / Fold change /veh PIWIL2 (11732686_x_at) / RFU ORM1 (11744905_x_at) / Fold change /veh ORM1 (11744905_x_at) / RFU CCDC152 (11743942_at) / Fold change /veh CCDC152 (11743942_at) / RFU ECM1 (11717891_a_at) / Fold change /veh ECM1 (11717891_a_at) / RFU IL23R (11748794_a_at) / Fold change /veh IL23R (11748794_a_at) / RFU TNFAIP8L3 (11732012_x_at) / Fold change /veh TNFAIP8L3 (11732012_x_at) / RFU MBOAT4 (11741988_at) / Fold change /veh MBOAT4 (11741988_at) / RFU 11764193_at / Fold change /veh 11764193_at / RFU TMEM53 (11763286_at) / Fold change /veh TMEM53 (11763286_at) / RFU MAGEB2 (11727129_at) / Fold change /veh MAGEB2 (11727129_at) / RFU TMEM200A (11744735_a_at) / Fold change /veh TMEM200A (11744735_a_at) / RFU CCDC152 (11751479_a_at) / Fold change /veh CCDC152 (11751479_a_at) / RFU FAM211A (11726209_a_at) / Fold change /veh FAM211A (11726209_a_at) / RFU RGS16 (11746705_a_at) / Fold change /veh RGS16 (11746705_a_at) / RFU VCAN (11755009_s_at) / Fold change /veh VCAN (11755009_s_at) / RFU RHOB (11743442_s_at) / Fold change /veh RHOB (11743442_s_at) / RFU RGS16 (11720943_a_at) / Fold change /veh RGS16 (11720943_a_at) / RFU RGS16 (11720944_at) / Fold change /veh RGS16 (11720944_at) / RFU, VPS4B / Fold change vs veh, VPS4B / RFU, CREB1 / Fold change vs veh, CREB1 / RFU, DNAJC13 / Fold change vs veh, DNAJC13 / RFU, GNAQ / Fold change vs veh, GNAQ / RFU, CDK5R1 / Fold change vs veh, CDK5R1 / RFU, ZRANB3 / Fold change vs veh, ZRANB3 / RFU, CUL4A / Fold change vs veh, CUL4A / RFU, CCNY / Fold change vs veh, CCNY / RFU, UFL1 / Fold change vs veh, UFL1 / RFU, COG3 / Fold change vs veh, COG3 / RFU, DIAPH2 / Fold change vs veh, DIAPH2 / RFU, SKA2 / Fold change vs veh, SKA2 / RFU, AFF3 / Fold change vs veh, AFF3 / RFU, LMF1 / Fold change vs veh, LMF1 / RFU, IPO11 / Fold change vs veh, IPO11 / RFU, DFFB / Fold change vs veh, DFFB / RFU, FOXP1 / Fold change vs veh, FOXP1 / RFU, CARD8 / Fold change vs veh, CARD8 / RFU, STRN3 / Fold change vs veh, STRN3 / RFU, ADK / Fold change vs veh, ADK / RFU, RASSF2 / Fold change vs veh, RASSF2 / RFU, WIPF1 / Fold change vs veh, WIPF1 / RFU, LARP1B / Fold change vs veh, LARP1B / RFU, RASA1 / Fold change vs veh, RASA1 / RFU, RB1 / Fold change vs veh, RB1 / RFU, PPFIA1 / Fold change vs veh, PPFIA1 / RFU, MAT2A / Fold change vs veh, MAT2A / RFU, CCT5 / Fold change vs veh, CCT5 / RFU, WDR92 / Fold change vs veh, WDR92 / RFU, CUX1 / Fold change vs veh, CUX1 / RFU, TTC7A / Fold change vs veh, TTC7A / RFU, TMEM135 / Fold change vs veh, TMEM135 / RFU, DEPTOR / Fold change vs veh, DEPTOR / RFU, CPM / Fold change vs veh, CPM / RFU, DNAJB6 / Fold change vs veh, DNAJB6 / RFU, CACNA2D3 / Fold change vs veh, CACNA2D3 / RFU, DTX4 / Fold change vs veh, DTX4 / RFU, TFCP2 / Fold change vs veh, TFCP2 / RFU, GMCL1 /// GMCL1P1 / Fold change vs veh, GMCL1 /// GMCL1P1 / RFU, AEBP2 / Fold change vs veh, AEBP2 / RFU, SNHG1 /// SNORD22 /// SNORD25 /// SNORD26 /// SNORD27 /// SNORD28 /// SNORD29 /// SNORD31 / Fold change vs veh, SNHG1 /// SNORD22 /// SNORD25 /// SNORD26 /// SNORD27 /// SNORD28 /// SNORD29 /// SNORD31 / Fold change (Aza/veh), C12orf56 (ProbeSet 11735607_a_at) / Fold change (ACY-1035/veh), C12orf56 (ProbeSet 11735607_a_at) / Fold change (Aza/veh), FGFR1OP (ProbeSet 11751329_s_at) / Fold change (ACY-1035/veh), FGFR1OP (ProbeSet 11751329_s_at) / Fold change (Aza/veh), VPS36 (ProbeSet 11739960_a_at) / Fold change (ACY-1035/veh), VPS36 (ProbeSet 11739960_a_at) / RFU SYPL1 (11715823_x_at) / Fold change /veh SYPL1 (11715823_x_at) / RFU IGFBP7 (11715501_s_at) / Fold change /veh IGFBP7 (11715501_s_at) / RFU REEP3 (11722064_at) / Fold change /veh REEP3 (11722064_at) / RFU IGLL1 (11728026_x_at) / Fold change /veh IGLL1 (11728026_x_at): dose or concentration left out as unconfirmed
Conditions: MV-4-11 cells, 48 hours

Nc1ncn([C@@H]2O[C@H](CO)[C@@H](O)[C@H]2O)c(=O)n1 [azacitidine]
RFU ANKRD19P (11752326_a_at): 6.34 RFU
